Columns and labels:
Myoneurin (Homo sapiens) = Myoneurin (Homo sapiens) (UniProt Q9NPC7); conditions: SUD4, Compound concentration 1.0 uM
[1] = molecular target: Alpha-1A adrenergic receptor (Homo sapiens) (UniProt P35348); conditions: Compound concentration 10.0 uM
[2] = molecular target: Cytoplasmic tyrosine-protein kinase BMX (Homo sapiens) (UniProt P51813); assay: BMX SGC Tm panel (DSF); conditions: Compound concentration 20.0 uM
[3] = molecular target: Serine/threonine-protein kinase 17B (Homo sapiens) (UniProt O94768); assay: STK17B SGC Tm panel (DSF); conditions: Compound concentration 20.0 uM
[4] = molecular target: Muscarinic acetylcholine receptor M3 (Homo sapiens) (UniProt P20309); conditions: Compound concentration 10.0 uM
[5] = GPCRScan assay: inhibition of GABA/PBR; set-up: species or system Rattus norvegicus; radioligand conc. used [nm] 0.3 – 2.0, parental cells brain tissue
[6] = molecular target: Serine/threonine-protein kinase RIO1 (Homo sapiens) (UniProt Q9BRS2); assay: RIOK1 SGC Tm panel (DSF); conditions: Compound concentration 20.0 uM
[7] = molecular target: Serine/threonine-protein kinase DCLK1 (Homo sapiens) (UniProt O15075); assay: DCAMKL1 SGC Tm panel (DSF); conditions: Compound concentration 20.0 uM
[8] = molecular target: GABA-A receptor; anion channel (Rattus norvegicus) (UniProt O09028+P15431+P18506+P18508+P19969+P20236+P23574+P23576+P28471+P28473+P30191+P62813+P63079+P63138+Q91ZM7+Q9ES14); conditions: Compound concentration 10.0 uM
[9] = molecular target: Sigma intracellular receptor 2 (Homo sapiens, UniProt Q5BJF2); assay: GPCRScan assay: inhibition of Sigma 2; set-up: radioligand conc. used [nm] 5.0, parental cells HEKT
[10] = molecular target: Zinc finger and BTB domain-containing protein 7A (Homo sapiens) (UniProt O95365); conditions: SUD4, Compound concentration 1.0 uM
[11] = molecular target: T1, Zinc finger and BTB domain-containing protein 1 (Homo sapiens) (UniProt Q9Y2K1); conditions: OCI-Ly1, Compound concentration 1.0 uM
T1 sequence (whole entry): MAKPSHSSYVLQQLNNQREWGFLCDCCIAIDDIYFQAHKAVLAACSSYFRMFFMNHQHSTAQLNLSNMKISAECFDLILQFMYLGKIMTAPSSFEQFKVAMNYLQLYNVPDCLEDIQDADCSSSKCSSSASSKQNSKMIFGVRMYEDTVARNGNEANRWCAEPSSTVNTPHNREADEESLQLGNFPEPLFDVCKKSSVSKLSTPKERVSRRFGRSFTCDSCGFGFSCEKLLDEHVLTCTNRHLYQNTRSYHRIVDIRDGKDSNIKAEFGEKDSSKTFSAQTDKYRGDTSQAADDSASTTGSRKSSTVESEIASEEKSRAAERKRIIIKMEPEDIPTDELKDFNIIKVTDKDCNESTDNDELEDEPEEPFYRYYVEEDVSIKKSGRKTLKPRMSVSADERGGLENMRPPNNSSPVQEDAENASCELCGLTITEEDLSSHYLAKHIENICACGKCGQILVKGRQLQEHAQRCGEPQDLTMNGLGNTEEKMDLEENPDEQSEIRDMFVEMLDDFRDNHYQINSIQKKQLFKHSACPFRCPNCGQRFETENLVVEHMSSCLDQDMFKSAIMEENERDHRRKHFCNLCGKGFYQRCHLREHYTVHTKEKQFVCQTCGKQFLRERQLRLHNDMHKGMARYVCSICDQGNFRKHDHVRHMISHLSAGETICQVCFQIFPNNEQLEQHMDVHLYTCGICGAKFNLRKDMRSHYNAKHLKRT

[12] = molecular target: Transcription initiation factor TFIID subunit 1 (Homo sapiens) (UniProt P21675); assay: TAF1 SGC Tm panel (DSF); conditions: Compound concentration 20.0 uM
[13] = molecular target: 5-hydroxytryptamine receptor 1B (Homo sapiens) (UniProt P28222); conditions: Compound concentration 10.0 uM
[14] = molecular target: T2, Zinc finger and BTB domain-containing protein 9 (Homo sapiens) (UniProt Q96C00); conditions: SUD4, Compound concentration 1.0 uM
T2 sequence (whole entry): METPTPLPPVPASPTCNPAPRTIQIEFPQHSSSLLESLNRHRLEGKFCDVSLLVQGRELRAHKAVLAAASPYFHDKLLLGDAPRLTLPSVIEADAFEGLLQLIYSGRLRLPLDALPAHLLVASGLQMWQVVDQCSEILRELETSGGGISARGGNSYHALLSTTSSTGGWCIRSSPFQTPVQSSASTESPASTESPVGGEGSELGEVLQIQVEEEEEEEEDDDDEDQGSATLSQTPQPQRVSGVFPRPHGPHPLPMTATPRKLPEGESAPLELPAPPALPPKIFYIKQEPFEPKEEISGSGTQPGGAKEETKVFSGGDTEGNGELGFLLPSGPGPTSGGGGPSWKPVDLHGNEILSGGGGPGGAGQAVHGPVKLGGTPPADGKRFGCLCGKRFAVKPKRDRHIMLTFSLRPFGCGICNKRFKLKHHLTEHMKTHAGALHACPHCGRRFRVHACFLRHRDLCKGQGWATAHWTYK

[15] = molecular target: BMP-2-inducible protein kinase (Homo sapiens) (UniProt Q9NSY1); assay: BMP2K SGC Tm panel (DSF); conditions: Compound concentration 20.0 uM
[16] = molecular target: Sodium-dependent dopamine transporter (Homo sapiens, UniProt Q01959); assay: GPCRScan assay: inhibition of DAT; set-up: radioligand conc. used [nm] 3.6 – 16.0, parental cells stable HEK
[17] = molecular target: Ribosomal protein S6 kinase alpha-5 (Homo sapiens) (UniProt O75582); assay: RPS6KA5 SGC Tm panel (DSF); conditions: Compound concentration 20.0 uM
[18] = molecular target: Beta-3 adrenergic receptor (Homo sapiens, UniProt P13945); assay: GPCRScan assay: inhibition of Beta3; set-up: radioligand conc. used [nm] 0.2 – 0.5, parental cells HEK Flp-In
[19] = molecular target: Serine/threonine-protein kinase Chk2 (Homo sapiens) (UniProt O96017); assay: CHEK2 SGC Tm panel (DSF); conditions: Compound concentration 20.0 uM
[20] = molecular target: MAP/microtubule affinity-regulating kinase 4 (Homo sapiens) (UniProt Q96L34); assay: MARK4 SGC Tm panel (DSF); conditions: Compound concentration 20.0 uM
[21] = molecular target: Homeodomain-interacting protein kinase 2 (Homo sapiens) (UniProt Q9H2X6); assay: HIPK2 SGC Tm panel (DSF); conditions: Compound concentration 20.0 uM
[22] = molecular target: Serine/threonine-protein kinase 38-like (Homo sapiens) (UniProt Q9Y2H1); assay: STK38L SGC Tm panel (DSF); conditions: Compound concentration 20.0 uM
[23] = molecular target: Casein kinase II subunit alpha' (Homo sapiens) (UniProt P19784); assay: CSNK2A2 SGC Tm panel (DSF); conditions: Compound concentration 20.0 uM
[24] = molecular target: Histamine H1 receptor (Homo sapiens) (UniProt P35367); conditions: Compound concentration 10.0 uM
[25] = molecular target: Cyclin-dependent kinase 16 (Homo sapiens) (UniProt Q00536); assay: PCTK1 SGC Tm panel (DSF); conditions: Compound concentration 20.0 uM
[26] = molecular target: Fibroblast growth factor receptor 2 (Homo sapiens) (UniProt P21802); assay: FGFR2 SGC Tm panel (DSF); conditions: Compound concentration 20.0 uM
[27] = molecular target: Dual specificity protein kinase CLK3 (Homo sapiens) (UniProt P49761); assay: CLK3 SGC Tm panel (DSF); conditions: Compound concentration 20.0 uM

Beta-3 adrenergic receptor, sequence (P13945 whole entry): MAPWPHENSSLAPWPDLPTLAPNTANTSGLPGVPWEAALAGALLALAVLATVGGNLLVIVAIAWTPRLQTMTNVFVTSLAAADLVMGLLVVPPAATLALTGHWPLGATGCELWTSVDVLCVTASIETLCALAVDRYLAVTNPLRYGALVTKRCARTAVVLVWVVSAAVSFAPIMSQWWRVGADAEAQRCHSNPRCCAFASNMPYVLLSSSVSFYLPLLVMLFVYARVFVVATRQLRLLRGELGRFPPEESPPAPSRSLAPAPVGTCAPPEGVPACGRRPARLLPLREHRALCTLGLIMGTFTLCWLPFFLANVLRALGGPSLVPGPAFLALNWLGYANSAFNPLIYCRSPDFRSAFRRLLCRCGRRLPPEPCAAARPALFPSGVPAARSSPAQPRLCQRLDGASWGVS
Sodium-dependent dopamine transporter, sequence (Q01959 whole entry): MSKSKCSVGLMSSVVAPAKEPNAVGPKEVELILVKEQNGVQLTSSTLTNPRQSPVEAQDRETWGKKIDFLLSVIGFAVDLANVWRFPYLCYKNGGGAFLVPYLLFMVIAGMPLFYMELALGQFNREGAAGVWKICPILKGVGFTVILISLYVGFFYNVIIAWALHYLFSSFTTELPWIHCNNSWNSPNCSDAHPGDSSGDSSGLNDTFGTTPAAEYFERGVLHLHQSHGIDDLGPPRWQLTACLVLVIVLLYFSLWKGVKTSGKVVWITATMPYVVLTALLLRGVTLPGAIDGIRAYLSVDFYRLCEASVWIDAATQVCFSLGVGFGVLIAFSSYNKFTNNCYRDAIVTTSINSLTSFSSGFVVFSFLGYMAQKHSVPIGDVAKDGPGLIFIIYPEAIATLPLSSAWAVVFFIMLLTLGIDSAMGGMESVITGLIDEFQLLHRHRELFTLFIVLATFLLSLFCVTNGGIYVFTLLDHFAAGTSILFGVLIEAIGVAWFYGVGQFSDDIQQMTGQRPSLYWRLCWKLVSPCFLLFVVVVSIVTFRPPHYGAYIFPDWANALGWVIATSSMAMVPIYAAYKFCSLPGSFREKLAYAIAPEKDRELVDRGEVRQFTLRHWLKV
Serine/threonine-protein kinase 38-like (Homo sapiens), sequence (Q9Y2H1 2-464 limits assumed): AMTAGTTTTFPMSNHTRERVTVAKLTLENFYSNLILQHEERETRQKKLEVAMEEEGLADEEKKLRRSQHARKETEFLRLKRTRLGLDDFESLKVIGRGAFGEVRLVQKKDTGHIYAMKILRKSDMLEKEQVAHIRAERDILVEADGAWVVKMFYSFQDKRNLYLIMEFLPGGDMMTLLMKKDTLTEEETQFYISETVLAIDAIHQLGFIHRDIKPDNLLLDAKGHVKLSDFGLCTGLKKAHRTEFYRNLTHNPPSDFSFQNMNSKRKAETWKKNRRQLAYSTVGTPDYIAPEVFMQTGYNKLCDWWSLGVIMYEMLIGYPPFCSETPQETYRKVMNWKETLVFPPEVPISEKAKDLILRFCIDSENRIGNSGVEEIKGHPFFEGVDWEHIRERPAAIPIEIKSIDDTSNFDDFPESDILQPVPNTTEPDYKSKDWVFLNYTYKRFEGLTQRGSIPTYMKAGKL
Cyclin-dependent kinase 16 (Homo sapiens), sequence (Q00536 whole entry): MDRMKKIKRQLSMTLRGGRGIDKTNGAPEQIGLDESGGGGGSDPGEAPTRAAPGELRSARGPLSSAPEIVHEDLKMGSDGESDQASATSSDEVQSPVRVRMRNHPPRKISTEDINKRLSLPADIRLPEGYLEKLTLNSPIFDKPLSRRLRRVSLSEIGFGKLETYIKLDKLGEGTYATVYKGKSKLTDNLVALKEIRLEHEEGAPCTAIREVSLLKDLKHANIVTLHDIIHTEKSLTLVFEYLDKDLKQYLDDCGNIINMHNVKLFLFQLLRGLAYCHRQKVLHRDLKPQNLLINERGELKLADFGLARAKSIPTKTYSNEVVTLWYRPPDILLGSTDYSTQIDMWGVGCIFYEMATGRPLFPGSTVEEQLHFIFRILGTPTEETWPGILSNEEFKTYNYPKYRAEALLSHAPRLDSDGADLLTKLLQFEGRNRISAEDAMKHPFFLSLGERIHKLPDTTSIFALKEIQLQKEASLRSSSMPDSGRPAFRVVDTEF
Sigma intracellular receptor 2, sequence (Q5BJF2 whole entry, the tested form may be a part): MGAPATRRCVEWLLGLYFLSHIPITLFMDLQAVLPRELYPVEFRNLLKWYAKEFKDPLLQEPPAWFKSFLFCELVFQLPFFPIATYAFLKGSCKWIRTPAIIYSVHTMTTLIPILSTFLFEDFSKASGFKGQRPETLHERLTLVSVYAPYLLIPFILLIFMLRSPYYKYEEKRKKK
MAP/microtubule affinity-regulating kinase 4 (Homo sapiens), sequence (Q96L34 whole entry): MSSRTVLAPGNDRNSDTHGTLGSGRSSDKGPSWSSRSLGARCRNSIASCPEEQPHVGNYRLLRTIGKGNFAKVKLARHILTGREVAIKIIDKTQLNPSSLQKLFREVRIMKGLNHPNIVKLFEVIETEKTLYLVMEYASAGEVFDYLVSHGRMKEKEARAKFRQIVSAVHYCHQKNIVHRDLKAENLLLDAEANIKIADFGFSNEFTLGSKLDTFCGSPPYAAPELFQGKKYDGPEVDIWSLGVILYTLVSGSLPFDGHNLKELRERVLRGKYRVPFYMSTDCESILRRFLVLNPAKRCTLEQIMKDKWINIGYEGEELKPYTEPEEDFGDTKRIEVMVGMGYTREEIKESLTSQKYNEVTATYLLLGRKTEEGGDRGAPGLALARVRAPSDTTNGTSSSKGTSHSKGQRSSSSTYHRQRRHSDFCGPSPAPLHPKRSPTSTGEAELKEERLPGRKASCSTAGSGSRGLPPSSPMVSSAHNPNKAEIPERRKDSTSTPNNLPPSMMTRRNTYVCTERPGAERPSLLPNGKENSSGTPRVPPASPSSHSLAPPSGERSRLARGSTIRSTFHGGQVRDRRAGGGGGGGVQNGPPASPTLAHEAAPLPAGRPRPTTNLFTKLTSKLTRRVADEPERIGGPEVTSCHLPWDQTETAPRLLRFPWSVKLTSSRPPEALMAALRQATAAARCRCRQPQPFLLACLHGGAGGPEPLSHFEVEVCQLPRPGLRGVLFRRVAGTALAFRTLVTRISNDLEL
Casein kinase II subunit alpha' (Homo sapiens), sequence (P19784 whole entry, looked up): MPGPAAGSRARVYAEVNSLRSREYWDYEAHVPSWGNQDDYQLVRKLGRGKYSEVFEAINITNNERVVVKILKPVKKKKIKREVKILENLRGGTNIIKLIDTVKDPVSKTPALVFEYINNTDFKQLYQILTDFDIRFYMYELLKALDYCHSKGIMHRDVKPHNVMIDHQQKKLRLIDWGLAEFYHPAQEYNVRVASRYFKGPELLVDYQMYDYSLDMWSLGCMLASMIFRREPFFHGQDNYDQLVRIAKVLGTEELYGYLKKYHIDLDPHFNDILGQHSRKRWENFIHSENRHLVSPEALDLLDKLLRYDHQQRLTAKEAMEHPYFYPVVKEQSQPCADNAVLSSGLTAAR
Serine/threonine-protein kinase 17B (Homo sapiens), sequence (O94768 whole entry): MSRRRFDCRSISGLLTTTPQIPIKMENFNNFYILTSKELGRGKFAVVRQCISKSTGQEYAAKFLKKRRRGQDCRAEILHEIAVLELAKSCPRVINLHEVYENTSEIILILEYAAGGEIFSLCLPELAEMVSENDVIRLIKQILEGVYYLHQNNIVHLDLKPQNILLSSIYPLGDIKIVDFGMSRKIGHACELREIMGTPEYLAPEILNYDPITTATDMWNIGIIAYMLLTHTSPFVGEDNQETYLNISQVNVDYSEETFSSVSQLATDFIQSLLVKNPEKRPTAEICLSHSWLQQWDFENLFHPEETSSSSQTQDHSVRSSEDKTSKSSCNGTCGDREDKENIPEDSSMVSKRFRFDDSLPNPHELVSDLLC
Cytoplasmic tyrosine-protein kinase BMX (Homo sapiens), sequence (P51813 whole entry): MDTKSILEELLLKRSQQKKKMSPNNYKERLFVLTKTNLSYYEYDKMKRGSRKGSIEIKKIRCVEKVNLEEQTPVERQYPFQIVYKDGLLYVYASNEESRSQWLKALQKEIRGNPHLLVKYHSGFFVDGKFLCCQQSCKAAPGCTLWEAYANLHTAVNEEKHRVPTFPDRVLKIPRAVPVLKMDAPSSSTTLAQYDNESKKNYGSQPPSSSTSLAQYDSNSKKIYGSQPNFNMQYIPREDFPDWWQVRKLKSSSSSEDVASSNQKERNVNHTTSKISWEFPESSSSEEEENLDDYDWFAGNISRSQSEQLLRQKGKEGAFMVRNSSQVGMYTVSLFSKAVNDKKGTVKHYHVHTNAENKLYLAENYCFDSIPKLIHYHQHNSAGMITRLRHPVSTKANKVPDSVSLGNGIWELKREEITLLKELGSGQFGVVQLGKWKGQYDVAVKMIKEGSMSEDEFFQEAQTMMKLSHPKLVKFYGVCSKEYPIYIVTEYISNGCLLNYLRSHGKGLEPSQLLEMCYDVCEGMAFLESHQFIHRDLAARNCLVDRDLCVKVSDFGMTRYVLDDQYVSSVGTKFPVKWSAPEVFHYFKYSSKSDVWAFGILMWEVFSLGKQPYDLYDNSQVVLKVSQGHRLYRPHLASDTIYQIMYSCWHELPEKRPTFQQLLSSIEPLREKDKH
Serine/threonine-protein kinase RIO1 (Homo sapiens), sequence (Q9BRS2 whole entry): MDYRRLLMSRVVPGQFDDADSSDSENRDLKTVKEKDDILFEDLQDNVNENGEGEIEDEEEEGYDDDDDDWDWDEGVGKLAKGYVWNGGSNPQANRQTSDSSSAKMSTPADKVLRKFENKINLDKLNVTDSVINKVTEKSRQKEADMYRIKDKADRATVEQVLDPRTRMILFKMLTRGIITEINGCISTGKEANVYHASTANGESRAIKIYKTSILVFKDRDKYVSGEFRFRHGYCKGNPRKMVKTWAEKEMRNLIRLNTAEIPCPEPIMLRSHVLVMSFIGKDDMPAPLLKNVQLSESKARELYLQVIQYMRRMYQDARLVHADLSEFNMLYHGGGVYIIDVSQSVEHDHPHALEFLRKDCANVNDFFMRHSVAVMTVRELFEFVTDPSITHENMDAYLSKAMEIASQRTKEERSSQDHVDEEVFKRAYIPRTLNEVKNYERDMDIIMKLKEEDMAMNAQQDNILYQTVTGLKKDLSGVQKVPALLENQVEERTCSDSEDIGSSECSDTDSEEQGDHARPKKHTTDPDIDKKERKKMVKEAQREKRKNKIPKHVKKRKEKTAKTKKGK

For `C[C@@H]1CN(c2ncc(Cl)c(Nc3ccc4c(c3)n(CCC(C)(C)O)c(=O)n4C)n2)C[C@H](C)C1(F)F`, the LogFC (Myoneurin (Homo sapiens)) was -0.189, the inhibition [1] was 7.7% and the Tm [2] was 48 °C. It also gave a Tm [3] of 43 °C, an inhibition [4] of 12% and a Ki [5] of 1110 nM. It also gave a pKi [5] of 6.01, a Tm [6] of 40 °C and a Tm [7] of 42 °C. The inhibition [8] was 7.06%, the Ki [9] was 2500 nM and the LogFC [10] was -0.0678. For the same compound, the LogFC [11] was -0.0612, the Tm [12] was 56 °C and the inhibition [13] was 3.38%. It also gave a LogFC [14] of -0.0222, a Tm [15] of 43 °C and a Ki ([16]; read-out: Ki) of 5.09 µM. For the same compound, the Ki ([16]; read-out: pKi (converted)) was 4.9 µM, the Tm [17] was 37 °C and the Ki ([18]; read-out: Ki) was 3.99 µM. The Ki ([18]; read-out: pKi (converted)) was 3.89 µM, the Tm [19] was 44 °C and the Tm [20] was 36 °C. It also gave a Tm [21] of 43 °C, a Tm [22] of 47 °C and a Tm [23] of 43 °C. For the same compound, the inhibition [24] was 10.3%, the Tm [25] was 52 °C and the Tm [26] was 50 °C. For the same compound, the Tm [27] was 34 °C.

Reference: ChEMBL document CHEMBL5058646 (2022)
